What was measured:
[1] = In vivo biodistribution in mice; design: species or system normal CD-1 male mice; details: for bone to blood ratio / bone to muscle ratio / Biodistribution: Blood / Biodistribution: Bone / Biodistribution: Brain / Biodistribution: Heart / Biodistribution: Kidney / Biodistribution: Liver / Biodistribution: Lung / Biodistribution: Muscle / Biodistribution: Pancreas / Biodistribution: Skin / Biodistribution: Spleen: iv
Description: Biodistribution experiments were performed by intravenously administering ^68Ga labeled 1a-h, 2, 3, BPAMD, and [^18F]NaF into normal, healthy male CD-1 mice (25-30 g). The injection activity was 20-30 μCi/animal. […] Organs of interest were harvested, weighed, and counts of radioactivity were measured by a gamma counter. The biodistribution of each sample was calculated as a percentage of the injected dose per gram of wet tissue weight (% ID/g). Tibia and femur bones were harvested and counted as bone samples.

[2] = In vitro binding to hydroxyapatite; details: 20 mg hydroxyapatite in saline, 10 min at room temperature
Description: Hydroxyapatite (20 mg, Sigma-Aldrich, reagent grade powder) was incubated in isotonic saline (1 mL) for 24 h. Subsequently, either ^68Ga labeled 1a-h, 2, 3, BPAMD, or [^18F]NaF (1 μCi) was added to the hydroxyapatite suspension. After vortexing for 10 seconds, the suspension was incubated for 10 min at room temperature. The samples were then centrifuged at 10,000 rpm for 3 min and the supernatant was removed. The hydroxyapatite fraction was washed twice with saline (1 mL). Radioactivity in the combined supernatants and the hydroxyapatite fraction was measured using a gamma counter. The proportion of the ^68Ga complex binding to hydroxyapatite was determined as percent of ^68Ga absorbed to hydroxyapatite.

O=C([O-])CN(CCN(CC(=O)[O-])Cc1cc(CCC(=O)NC(P(=O)(O)O)P(=O)(O)O)ccc1[O-])Cc1cc(CCC(=O)NCCCNC(=O)CCc2ccc(O)c(CN(CCN(CC(=O)O)Cc3cc(CCC(=O)NC(P(=O)(O)O)P(=O)(O)O)ccc3O)CC(=O)O)c2)ccc1[O-].[68Ga+3] [[^68Ga]3]
bone to blood ratio ([1]; 2 min): 0.5 | bone to muscle ratio ([1]; 2 min): 2.6 | Biodistribution: Blood ([1]; 2 min post injection): 8.33 ± 0.23 % dose/g | Biodistribution: Bone ([1]; 2 min post injection): 4.17 ± 0.35 % dose/g | Biodistribution: Brain ([1]; 2 min post injection): 0.28 ± 0.03 % dose/g | Biodistribution: Heart ([1]; 2 min post injection): 3.45 ± 0.25 % dose/g | Biodistribution: Kidney ([1]; 2 min post injection): 12.2 ± 1.51 % dose/g | Biodistribution: Liver ([1]; 2 min post injection): 19.7 ± 1.05 % dose/g | Biodistribution: Lung ([1]; 2 min post injection): 71.6 ± 6.33 % dose/g | Biodistribution: Muscle ([1]; 2 min post injection): 1.62 ± 0.47 % dose/g | Biodistribution: Pancreas ([1]; 2 min post injection): 1.73 ± 0.08 % dose/g | Biodistribution: Skin ([1]; 2 min post injection): 1.24 ± 0.01 % dose/g | Biodistribution: Spleen ([1]; 2 min post injection): 12.8 ± 4.35 % dose/g | bone to blood ratio ([1]; 30 min): 4.8 | bone to muscle ratio ([1]; 30 min): 14 | Biodistribution: Blood ([1]; 30 min (0.5 hr) post injection): 1.92 ± 0.15 % dose/g | Biodistribution: Bone ([1]; 30 min (0.5 hr) post injection): 9.26 ± 1.45 % dose/g | Biodistribution: Brain ([1]; 30 min (0.5 hr) post injection): 0.06 ± 0.01 % dose/g | Biodistribution: Heart ([1]; 30 min (0.5 hr) post injection): 2.02 ± 0.97 % dose/g | Biodistribution: Kidney ([1]; 30 min (0.5 hr) post injection): 17.1 ± 0.70 % dose/g | Biodistribution: Liver ([1]; 30 min (0.5 hr) post injection): 9.86 ± 0.66 % dose/g | Biodistribution: Lung ([1]; 30 min (0.5 hr) post injection): 15.6 ± 1.39 % dose/g | Biodistribution: Muscle ([1]; 30 min (0.5 hr) post injection): 0.68 ± 0.09 % dose/g | Biodistribution: Pancreas ([1]; 30 min (0.5 hr) post injection): 1.07 ± 1.04 % dose/g | Biodistribution: Skin ([1]; 30 min (0.5 hr) post injection): 1.10 ± 0.18 % dose/g | Biodistribution: Spleen ([1]; 30 min (0.5 hr) post injection): 8.33 ± 2.22 % dose/g | bone to blood ratio ([1]; 60 min): 13 | bone to muscle ratio ([1]; 60 min): 16 | Biodistribution: Blood ([1]; 60 min (1 hr) post injection): 0.70 ± 0.13 % dose/g | Biodistribution: Bone ([1]; 60 min (1 hr) post injection): 9.26 ± 1.13 % dose/g | Biodistribution: Brain ([1]; 60 min (1 hr) post injection): 0.06 ± 0.01 % dose/g | Biodistribution: Heart ([1]; 60 min (1 hr) post injection): 1.16 ± 0.13 % dose/g | Biodistribution: Kidney ([1]; 60 min (1 hr) post injection): 7.99 ± 1.08 % dose/g | Biodistribution: Liver ([1]; 60 min (1 hr) post injection): 23.5 ± 3.13 % dose/g | Biodistribution: Lung ([1]; 60 min (1 hr) post injection): 41.3 ± 5.15 % dose/g | Biodistribution: Muscle ([1]; 60 min (1 hr) post injection): 0.57 ± 0.14 % dose/g | Biodistribution: Pancreas ([1]; 60 min (1 hr) post injection): 0.26 ± 0.02 % dose/g | Biodistribution: Skin ([1]; 60 min (1 hr) post injection): 0.41 ± 0.02 % dose/g | Biodistribution: Spleen ([1]; 60 min (1 hr) post injection): 10.3 ± 2.65 % dose/g | bone to blood ratio ([1]; 120 min): 29 | bone to muscle ratio ([1]; 120 min): 39 | Biodistribution: Blood ([1]; 120 min post injection): 0.37 ± 0.07 % dose/g | Biodistribution: Bone ([1]; 120 min post injection): 10.6 ± 0.85 % dose/g | Biodistribution: Brain ([1]; 120 min post injection): 0.05 ± 0.01 % dose/g | Biodistribution: Heart ([1]; 120 min post injection): 1.05 ± 0.11 % dose/g | Biodistribution: Kidney ([1]; 120 min post injection): 8.99 ± 0.20 % dose/g | Biodistribution: Liver ([1]; 120 min post injection): 25.4 ± 2.80 % dose/g | Biodistribution: Lung ([1]; 120 min post injection): 34.8 ± 1.90 % dose/g | Biodistribution: Muscle ([1]; 120 min post injection): 0.28 ± 0.04 % dose/g | Biodistribution: Pancreas ([1]; 120 min post injection): 0.25 ± 0.03 % dose/g | Biodistribution: Skin ([1]; 120 min post injection): 0.33 ± 0.06 % dose/g | Biodistribution: Spleen ([1]; 120 min post injection): 15.7 ± 1.59 % dose/g | Biodistribution result in words (organ uptake, retention, excretion) ([1]; normal mice after iv injection): high liver uptake and less bone localization | Hydroxyapatite Binding (%) [2]: 95.8 ± 0.1%

O=C([O-])CN(CCN(CC(=O)[O-])Cc1cc(CCC(=O)O)ccc1[O-])Cc1cc(CCC(=O)O)ccc1[O-].[68Ga+3] [[^68Ga]HBED-CC, reference compound]
bone to blood ratio ([1]; 2 min): 0.2 | bone to muscle ratio ([1]; 2 min): 0.8 | Biodistribution: Blood ([1]; 2 min post injection): 7.66 ± 0.75 % dose/g | Biodistribution: Bone ([1]; 2 min post injection): 1.85 ± 0.05 % dose/g | Biodistribution: Brain ([1]; 2 min post injection): 0.29 ± 0.08 % dose/g | Biodistribution: Heart ([1]; 2 min post injection): 2.74 ± 0.34 % dose/g | Biodistribution: Kidney ([1]; 2 min post injection): 27.2 ± 0.64 % dose/g | Biodistribution: Liver ([1]; 2 min post injection): 1.75 ± 0.08 % dose/g | Biodistribution: Lung ([1]; 2 min post injection): 4.27 ± 0.34 % dose/g | Biodistribution: Muscle ([1]; 2 min post injection): 2.30 ± 0.13 % dose/g | Biodistribution: Pancreas ([1]; 2 min post injection): 1.60 ± 0.12 % dose/g | Biodistribution: Skin ([1]; 2 min post injection): 3.18 ± 0.43 % dose/g | Biodistribution: Spleen ([1]; 2 min post injection): 1.69 ± 0.18 % dose/g | bone to blood ratio ([1]; 30 min): 0.3 | bone to muscle ratio ([1]; 30 min): 0.9 | Biodistribution: Blood ([1]; 30 min (0.5 hr) post injection): 0.83 ± 0.09 % dose/g | Biodistribution: Bone ([1]; 30 min (0.5 hr) post injection): 0.28 ± 0.06 % dose/g | Biodistribution: Brain ([1]; 30 min (0.5 hr) post injection): 0.04 ± 0.01 % dose/g | Biodistribution: Heart ([1]; 30 min (0.5 hr) post injection): 0.34 ± 0.06 % dose/g | Biodistribution: Kidney ([1]; 30 min (0.5 hr) post injection): 3.22 ± 0.41 % dose/g | Biodistribution: Liver ([1]; 30 min (0.5 hr) post injection): 0.38 ± 0.08 % dose/g | Biodistribution: Lung ([1]; 30 min (0.5 hr) post injection): 0.58 ± 0.07 % dose/g | Biodistribution: Muscle ([1]; 30 min (0.5 hr) post injection): 0.32 ± 0.06 % dose/g | Biodistribution: Pancreas ([1]; 30 min (0.5 hr) post injection): 0.26 ± 0.01 % dose/g | Biodistribution: Skin ([1]; 30 min (0.5 hr) post injection): 0.64 ± 0.08 % dose/g | Biodistribution: Spleen ([1]; 30 min (0.5 hr) post injection): 0.26 ± 0.04 % dose/g | bone to blood ratio ([1]; 60 min): 1.7 | bone to muscle ratio ([1]; 60 min): 2.3 | Biodistribution: Blood ([1]; 60 min (1 hr) post injection): 0.14 ± 0.04 % dose/g | Biodistribution: Bone ([1]; 60 min (1 hr) post injection): 0.25 ± 0.16 % dose/g | Biodistribution: Brain ([1]; 60 min (1 hr) post injection): 0.02 ± 0.01 % dose/g | Biodistribution: Heart ([1]; 60 min (1 hr) post injection): 0.17 ± 0.11 % dose/g | Biodistribution: Kidney ([1]; 60 min (1 hr) post injection): 0.91 ± 0.32 % dose/g | Biodistribution: Liver ([1]; 60 min (1 hr) post injection): 0.11 ± 0.02 % dose/g | Biodistribution: Lung ([1]; 60 min (1 hr) post injection): 0.19 ± 0.04 % dose/g | Biodistribution: Muscle ([1]; 60 min (1 hr) post injection): 0.11 ± 0.04 % dose/g | Biodistribution: Pancreas ([1]; 60 min (1 hr) post injection): 0.13 ± 0.05 % dose/g | Biodistribution: Skin ([1]; 60 min (1 hr) post injection): 0.09 ± 0.07 % dose/g | Biodistribution: Spleen ([1]; 60 min (1 hr) post injection): 0.12 ± 0.02 % dose/g | bone to blood ratio ([1]; 120 min): 12 | bone to muscle ratio ([1]; 120 min): 3.3 | Biodistribution: Blood ([1]; 120 min post injection): 0.01 ± 0.00 % dose/g | Biodistribution: Bone ([1]; 120 min post injection): 0.18 ± 0.06 % dose/g | Biodistribution: Brain ([1]; 120 min post injection): 0.02 ± 0.00 % dose/g | Biodistribution: Heart ([1]; 120 min post injection): 0.09 ± 0.00 % dose/g | Biodistribution: Kidney ([1]; 120 min post injection): 0.08 ± 0.05 % dose/g | Biodistribution: Liver ([1]; 120 min post injection): 0.04 ± 0.02 % dose/g | Biodistribution: Lung ([1]; 120 min post injection): 0.07 ± 0.02 % dose/g | Biodistribution: Muscle ([1]; 120 min post injection): 0.05 ± 0.02 % dose/g | Biodistribution: Pancreas ([1]; 120 min post injection): 0.07 ± 0.01 % dose/g | Biodistribution: Skin ([1]; 120 min post injection): 0.03 ± 0.01 % dose/g | Biodistribution: Spleen ([1]; 120 min post injection): 0.13 ± 0.03 % dose/g | Hydroxyapatite Binding (%) [2]: 0.4±0.1%

Reference: patent US10253052B2, “HBED-bisphosphonates, radiometal conjugates and their use as theranostic agents” (Five Eleven Pharma Inc., priority 2015, dated 2019)
